From ChEMBL document CHEMBL1123407, “Synthesis of a new chemically and metabolically stable prostacyclin analogue with high and long-lasting oral activity” (J Med Chem, 1986)

Tests used:
Homo sapiens [1] = species: Homo sapiens; assay: In vitro inhibition of collagen (0.66 ug/mL)-induced platelet aggregation in human PRP; type: functional
Rattus norvegicus = species: Rattus norvegicus; assay: In vitro inhibition of ADP (1.25 x 10E-6 M)-induced platelet aggregation in rat PRP (wistar); type: functional
Homo sapiens [2] = species: Homo sapiens; assay: In vitro inhibition of ADP (0.5 x 10E-6 M)-induced platelet aggregation in human PRP
Homo sapiens [3] = species: Homo sapiens; assay: In vitro inhibition of thrombin (0.1 IU/mL)-induced platelet aggregation in human PRP

Structure (SMILES)	IC50 (Homo sapiens [1])	IC50 (Rattus norvegicus)	IC50 (Homo sapiens [2])	IC50 (Homo sapiens [3])
CCC#CC[C@H](C)[C@H](O)C#CC1[C@H]2C/C(=C/COCC(=O)O)CC2C[C@H]1O (stereo not given in full)	0.2 nM	3.2 nM	0.64 nM	0.13 nM
CCCCC[C@H](O)/C=C/[C@@H]1[C@H]2C/C(=C/CCCC(=O)O)O[C@H]2C[C@H]1O [EPOPROSTENOL]	–	2.6 nM	0.66 nM	–
CC#CCC(C)[C@H](O)/C=C/[C@@H]1[C@H]2C/C(=C/CCCC(=O)O)C[C@H]2C[C@H]1O (stereo not given in full) [ILOPROST]	0.39 nM	11.4 nM	0.82 nM	0.39 nM
